What was measured:
Format in all cases: cell-based
phospho-GSK3 (Ser9) = assay: Cellular pGSK3 assay (phospho-GSK3 ELISA); details: Homo sapiens, MCF7 cells, 48 h incubation, read-out: Cellular pGSK3 pathway assay
Procedure: In order to study the cellular activity of the compounds according to the present invention, an ELISA-based assay has been established for the phosphorylated protein glycogen synthetase kinase 3 (GSK3). The assay is based on a solid phase sandwich ELISA that detects endogenous levels of phosphorylated GSK3 using a phospho-GSK3 (Ser9) specific antibody (BioSource International, Inc.; Catalog #KHO0461). After incubation with cell lysates, the coated antibody captures the phosphorylated GSK3 protein. Following extensive washing, GSK3 polyclonal antibody is added to detect the captured phospho-GSK3 protein. Secondary antibody (anti-rabbit IgG-HRP) is then used to recognize the bound detection antibody. After the second incubation and washing to remove all the excess anti-rabbit IgG-HRP, a substrate solution is added, which is acted upon by the bound enzyme to produce color. The intensity of this colored product is directly proportional to the concentration of GSK-3β [pS9] present in the original specimen. MCF7 cells (ATCC HTB-22) were seeded into 96 well fate bottom plates at a density of 10000 cells/well. After 24 h 1 μl each of the compound dilutions (test compounds were dissolved as 10 mM solutions in dimethylsulfoxide (DMSO) and subsequently diluted) were added into each well of the 96 well plates and incubated for 48 h at 37° C. in a humidified atmosphere containing 5% CO2. Cells were harvested and lysed in cell extraction buffer (10 mM Tris, pH 7.4, 100 mM NaCl, 1 mM EDTA, 1 mM EGTA, 1 mM NaF, 20 mM Na4P2O7, 2 mM Na3VO4, 1% Triton X-100, 10 vol % glycerol, 0.1 vol % SDS, 0.5 vol % deoxycholate, 1 mM phenylmethylsulfonylfluoride (PMSF)). The lysate were centrifuged for 10 min. at 4° C. and the supernatant were transferred to a new tube. 50 μl of sample diluent (standard diluent buffer, Biosource) were added and 100 μl of cell lysate transferred into the tube and vortexed. 100 μl of each diluted cell lysate were added to the appropriate ELISA well plate and incubated for 3 h at room temperature. The plates were washed 4 times with 1× wash buffer (Biosource). 50 μl of detection antibody (GSK3 (Ser9) detection antibody; BioSource) were added to each well and incubated for 30 min. at room temperature. The washing procedure was repeated between each step. 100 μl of HRP-linked secondary antibody (anti-mouse IgG HRP-linked antibody) were added to each well and incubated for 30 min. at room temperature. 100 μl of TMB substrate (0.05 vol % 3,3′,5,5′ tetramethylbenzidine, 0.1 vol % hydrogen peroxide, complex polypeptides in a buffered solution; Biosource) were added to each well and incubated for 30 min. at room temperature. Finally 100 μl of Stop solution (0.05 vol % α and β unsaturated carbonyl compound) were added to each well and the plate were shaked gently for a few seconds. The absorbance was measured at λ=450 nm (Wallac Victor2; Perkin Elmer, USA) within 30 min. after adding the stop solution.
The analysis of the data was performed using a statistical program (Excel; Microsoft, USA) and the IC50 of pGSK3 inhibition was determined.

phospho-Akt (Ser473) = assay: Cellular PI3K/Akt pathway assay (phospho-Akt ELISA); details: Homo sapiens, MCF7 cells, β-Heregulin stimulated, 48 h incubation
Excerpt: Cellular PI3K/Akt Pathway Assay
In order to study the cellular activity of the compounds according to the present invention, an Enzyme Linked Immunosorbent Assay (ELISA)-based assay has been used specific phospho-AKT. The assay is based on a Sandwich ELISA kit (PathScan™ Phospho-Akt1 (Ser473); Cell Signaling, USA; #7160). The ELISA Kit detects endogenous levels of phosphorylated Akt protein. A phospho-Akt (Ser473) antibody (Cell Signaling, USA; #9271) has been coated onto the microwells. After incubation with cell lysates, the coated antibody captures the phosphorylated Akt protein. Following extensive washing, Akt1 monoclonal antibody (Cell Signaling, USA; #2967) is added to detect the captured phospho-Akt1 protein. HRP-linked anti-mouse antibody (HRP: horseradish peroxidase; Cell Signaling, USA; #7076) is then used to recognize the bound detection antibody. HRP substrate (=3,3′,5,5′-tetramethylbenzidine (TMB); Cell Signaling, USA; #7160) is added to develop colour. The magnitude of optical density for this developed color is proportional to the quantity of phosphorylated Akt protein.
MCF7 cells (ATCC HTB-22) are seeded into 96 well fate bottom plates at a density of 10000 cells/well. 24 hours after seeding, the cells are serum starved using low-serum medium (IMEM media including 0.1% charcoal treated FCS (FCS: fetal calf serum)). After 24 hours 1 μl each of the compound dilutions (test compounds were dissolved as 10 mM solutions in dimethylsulfoxide (DMSO) and subsequently diluted) are added into each well of the 96 well plates and incubated for 48 h at 37° C. in a humidified atmosphere containing 5% CO2. To stimulate Akt phosphorylation, β-Heregulin (20 ng/ml β-HRG) is added in parallel to the compounds. Wells containing unstimulated control cells (no β-Heregulin stimulation) are incubated with or without the diluted compound. Wells containing untreated control cells (no compound) are filled with medium containing 0.5% v:v DMSO and are or are not stimulated with β-Heregulin.
Cells are harvested and lysed with brief sonification in 1× cell lysis buffer (20 mM Tris (pH7.5), 150 mM NaCl, 1 mM ethylene diaminetetraacetate (EDTA), 1 mM ethylene glycolbis(2-aminoethyl)-N,N,N′,N′-tetraacetic acid (EGTA), 1 vol % Triton X-100, 2.5 mM sodium pyrophosphate, 1 mM β-glycerolphosphate, 1 mM Na3VO4, 1 μg/ml leupeptin). The lysate is centrifuged for 10 min. at 4° C. and the supernatant is transferred to a new tube. 100 μl of sample diluent (0.1 vol % Tween-20, 0.1 vol % sodium azide in phosphate buffered saline (PBS)) are added to a microcentrifuge tube and 100 μl of cell lysate are transferred into the tube and vortexed. 100 μl of each diluted cell lysate are added to the appropriate ELISA well, and incubated overnight at 4° C. The plates are washed 4 times with 1× wash buffer (1 vol % tween-20, 0.33 vol % thymol, in PBS). Next 100 μl of detection antibody (Akt1 (2H10) monoclonal detection antibody; Cell Signaling, USA; #2967) are added to each well and incubation continued for 1 h at 37° C. The washing procedure is repeated between each step. 100 μl of secondary antibody (anti-mouse IgG HRP-linked antibody; Cell Signaling, USA; #7076) are added to each well and incubated for 30 min. at 37° C. Than, 100 μl of TMB substrate (0.05% 3,3′,5,5′ tetramethylbenzidine, 0.1% hydrogen peroxide, complex polypeptides in a buffered solution; Cell Signaling, USA; #7160) are added to each well and incubated for 30 min. at 25° C. Finally 100 μl of STOP solution (0.05 vol % α and β unsaturated carbonyl compound) are added to each well and the plate are shaked gently. The absorbance is measured at λ=450 nm (Wallac Victor2; Perkin Elmer, USA) within 30 min. after adding the STOP solution. The analysis of the data is performed using a statistical program (Excel; Microsoft, USA). Preferred compounds show an inhibitory activity towards Akt phosphorylation below 10 μM.

A549 cells = assay: Cellular proliferation/cytotoxicity assay (Alamar Blue), A549; details: Homo sapiens, 72 h, Alamar Blue (Resazurin), read-out: Anti-proliterative/Cytotoxic activity (A549 cells)
Procedure, shortened: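 OvCAR3 (10000 cells/well) or A549 (2000 cells/well) were dosed 24 h after seeding and exposed for 72 h at 37 °C, 5% CO2, in duplicate or more. Resazurin was added for 4 h and fluorescence read at 544/590 nm. Viability is relative to untreated 0.5% DMSO controls, with IC50 by non-linear regression.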

Row | IC50 (phospho-GSK3 (Ser9)) [µM] | IC50 (phospho-Akt (Ser473)) [µM] | SMILES | IC50 (A549 cells) [µM]
1 | 1 to 10 | > 10 | Cc1c(-c2ccccc2)c(-c2ccc(CN3CCC(c4n[nH]c(-c5ccccn5)n4)CC3)cc2)nc2nccn12 [Example 27, 5-methyl-6-phenyl-7-(4-{[4-(5-pyridin-2-yl-1H-1,2,4-triazol-3-yl)piperidin-1-yl]methyl}phenyl)imidazo[1,2-a]pyrimidine] | –
2 | 1 to 10 | – | COc1c(-c2ccccc2)c(-c2ccc(CN3CCC(c4n[nH]c(-c5ccccn5)n4)CC3)cc2)nc2ccnn12 [Example 29, 7-Methoxy-6-phenyl-5-(4-{[4-(5-pyridin-2-yl-1H-1,2,4-triazol-3-yl)piperidin-1-yl]methyl}phenyl)pyrazolo[1,5-a]pyrimidine] | > 10
